Results from patent publication US6846843B2, “β-thioamino acids” (Gruenenthal GmbH, priority 2000, dated 2005).
Read-outs that look alike come from different tables or passages of the source.

How the values were obtained:
gabapentin binding site = assay: Gabapentin binding assay (displacement of gabapentin from its binding site); conditions: displacement of gabapentin; hydrochloride; read-out: Affinity (IC50)
Protocol: Gabapentin is used in the binding assay in order to determine the binding and affinities of the selected compounds. The affinity of the compounds according to the invention is measured via the displacement of gabapentin from its binding site.

[1] = test system: phenylquinone-induced writhing reactions; assay: Phenylquinone-induced writhing test in mice; assay type: in vivo; conditions: iv, read-out: Writhing Mouse i.v. ED50
Protocol: The antinociceptive effectiveness of the compounds according to the invention was investigated in mice using the phenylquinone-induced writhing test as modified by I. C. Hendershot and J. Forsaith, J. Pharmacol. Exp. Ther. 125, 237-240 (1959)). Male NMRI mice weighing 25-30 g were used for this purpose. Groups of 10 animals per substance dose were given intraperitoneally 10 minutes after intravenous administration of a compound according to the invention, 0.3 ml/mouse of a 0.02% aqueous solution of phenylquinone (phenylbenzoquinone, from Sigma, Deisenhofen; solution prepared by addition of 5% of ethanol and storage in a water bath at 45° C.). The animals were placed individually in observation cages. The number of pain-induced stretching movements (so-called writhing reactions=contortion of the body accompanied by stretching of the rear extremities) 5-20 minutes after administration of the phenylquinone were counted using a push-button counter. Animals that had received physiological saline solution i.v. and phenylquinone […]. served as controls.
All substances were tested in the standard dose of 10 mg/kg.

cold-induced allodynia = assay: Bennett model, neuropathic pain in rats (cold-induced allodynia); assay type: in vivo; conditions: rat; for AUD: over 1 hour, *** p≦0.001
Protocol: The effectiveness in neuropathic pain was investigated using the Bennett model (Chronic Constriction Injury: Bennett and Xie, 1988, Pain 33: 87-107).
The right sciatic nerve of Sprague-Dawley rats weighing 140-160 g anaesthetised with nembutal was loosely ligatured in four places. The animals develop an hypersensitivity in the paw inervated by the damaged nerve, which after a one-week healing phase is quantified over about four weeks by means of a 4° C. cold metal plate (cold-induced allodynia). The animals are observed for a period of 2 minutes on this plate and the number of contractive reactions of the damaged paw is measured. The effect of the substance is determined at four times over a period of 1 hour (15, 30, 45 and 60 minutes after application) with reference to the baseline value before application of the substance and the resulting area under the curve (AUD) as well as the inhibition of the cold-induced allodynia at the individual measuring points is expressed as a percentage inhibition with respect to the vehicle control (AUD) and to the starting value (individual measurement points). The group size is n=10, and the significance of an anti-allodynic action is determined on the basis of the AUD values over a paired Test (* 0.05≧p>0.01; ** 0.01≧p>0.001; *** p≦0.001; Armitage and Berry, 1987, Stat. Methods in Medical Research, London: Blackwell Scientific Publications).

[2] = test system: formalin-induced nociception; assay: Formalin test on mice (second phase); assay type: in vivo; conditions: read-out: Mouse Formalin Test ED50
Protocol: The investigations to determine the antinociceptive action of the compounds according to the invention were carried out by the formalin test on male albino mice (NMRI, 25-35 g, Iffa Credo, Belgium).
In the formalin test the first (early) phase (0-15 minutes after the formalin injection) and the second (late) phase (15-60 minutes after the formalin injection) differ (D. Dubuisson et al., Pain, Vol. 4, pp. 161-174 (1977)). The early phase, being a direct reaction to the formalin injection, constitutes a model for acute pain, whereas the late phase is regarded as a model for persistent (chronic or inflammatory) pain (T. J. Coderre et al., Pain, Vol. 52, pp. 259-285 (1993)).
The compounds according to the invention were investigated in the second phase of the formalin test in order to obtain information on the effects of substances in chronic/inflammatory pain.
By means of a single subcutaneous formalin injection (20 μl, 1% aqueous solution) into the dorsal side of the right-hand rear paw, a nociceptive reaction was induced in unconstrained experimental animals, manifested in a noticeable licking and biting of the affected paw. The nociceptive behavior during the investigation period in the second (late) phase of the formalin test was continuously monitored by observing the animals. The pain reaction was quantified by totalling the time in seconds during which the animals continued to lick and bite the affected paw during the investigation period. After injecting substances that have an antinociceptive effect in the formalin test, the aforedescribed behavior pattern of the animals is reduced or possibly even eliminated. Corresponding to the substance tests, in which the animals had been injected with the test substance before formalin, the control animals were injected with a vehicle, i.e. solvent (e.g. 0.9% NaCl solution) before the formalin injection. The behavior of the animals after administration of the substance (n=10 per substance dose) was compared with a control group (n=10).
Based on the quantification of the pain reaction, the effect of the substance in the formalin test was determined as the change in the control in percentage terms. The ED50 calculations were carried out by means of regression analysis. The application time before the formalin injection (intraperitoneally: 15 minutes, intravenously: 5 minutes) was chosen depending on the type of application of the compounds according to the invention.

[3] = test system: mechanical hyperalgesia after paw incision; assay: Mechanical hyperalgesia after paw incision in rats (paw incision model); assay type: in vivo; conditions: rat, 464 mg/kg i.p.
Protocol: In this model the wound pain in the tissue surrounding an incision in the plantar side of a rear rat paw is investigated as a model of post-operative pain (Brennan, T. J., Vandermeulen, E. P., Gebhart, G. F., Pain (1996) 493-501). For this purpose the retraction latency after punctiform mechanical stimulation with an electronic von Frey filament is determined. After the paw incision a mechanical hyperalgesia develops, which remains stable over several days.
Male Sprague Dawley rats (bodyweight 200-300 g) are used. Under halothane anaesthesia a 1 cm-long incision is made starting 0.5 cm from the proximal end of the heel, through the skin, fascia and plantaris muscle, and closed with two stitches.
The retraction threshold of the paw expressed in grams after punctiform mechanical stimulation is determined using an electronic von Frey filament (Digital Transducer Indicator Model 1601C, IITC Inc.). For this purpose the retraction threshold per measurement point is measured five times at intervals of 30 seconds and the individual median value is determined, on the basis of which the mean value of the animal cohort is in turn calculated. […]
In order to investigate primary hyperalgesia, the retraction threshold is determined on the ipsilateral paw in the immediate vicinity of the incision as well as in the same position on the contralateral paw. […]

[4] = mouse, i.v., 10 minutes before phenylquinone

| SMILES | IC50 (gabapentin binding site) [nM] | ED50 [1, 4] [mg/kg] | Change Compared to Control (%) (cold-induced allodynia; 46.4 mg/kg i.p.) | AUD (cold-induced allodynia; 46.4 mg/kg i.p.) | Change Compared to Control (%) (cold-induced allodynia; 100 mg/kg i.p.) | AUD (cold-induced allodynia; 100 mg/kg i.p.) | ED50 ([2]; iv, mouse, i.v., second phase) [mg/kg] | % MPE (Maximal Possible Effect) [3] | ED50 ([1]; Mus musculus) [mg/kg] | Change Compared to Control (%) (cold-induced allodynia; 464 mg/kg i.p.) | AUD (cold-induced allodynia; 464 mg/kg i.p.) | ED50 ([2]; Mus musculus) [mg/kg] |
| --- | --- | --- | --- | --- | --- | --- | --- | --- | --- | --- | --- | --- |
| CCCCCC(C)(S)C(N)C(=O)O.Cl (racemic) [Compound 4, rac-2-amino-3-mercapto-3-methyloctanoic acid hydrochloride] | 186 | 12 | 32.5 | 1893.1 ± 284.6*** | 66.9 | 3603.1 ± 228.1*** | 67 | – | – | – | – | – |
| CCCCCCCC(C)(S)C(N)C(=O)O.Cl (racemic) [Compound 6, rac-2-amino-3-mercapto-3-methyldecanoic acid hydrochloride] | 199 | 35 | – | – | – | – | 66 | 27% MPE (464 mg/kg) i.p. | – | – | – | – |
| NCC1(CC(=O)O)CCCCC1 [Gabapentin, gabapentin, reference compound] | – | – | – | – | 34.5 | 1940.3 ± 139.7*** | – | – | 38 | 47.3 | 2577.8 ± 147.4*** | 79 |
